Patent US4772625A, “1,3-dioxan-5-yl-hexenoic acids” (Imperial Chemical Industries PLC, priority 1985, dated 1988)

How the values were obtained:
[1] = target: T1, (Oryctolagus cuniculus, UniProt Q6WQI8); assay: Test (a): rabbit aortic strip model, TXA2 or U46619 as agonist; assay type: cell-based; conditions: comparison compound
T1 construct: functional contraction assay (pA2)
T1 sequence (Q6WQI8 1-233): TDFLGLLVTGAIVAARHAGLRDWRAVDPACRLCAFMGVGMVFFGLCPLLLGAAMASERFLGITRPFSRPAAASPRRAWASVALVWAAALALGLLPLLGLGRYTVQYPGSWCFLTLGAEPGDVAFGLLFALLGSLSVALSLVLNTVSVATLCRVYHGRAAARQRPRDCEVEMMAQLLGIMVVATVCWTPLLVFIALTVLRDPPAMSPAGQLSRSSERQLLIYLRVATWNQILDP
Description: (§1) (a) The rabbit aortic strip model devised by Piper and Vane (Nature, 1969, 223, 29-35) using as agonist a freshly prepared sample of TXA2, generated by addition of arachidonic acid (25 μg) to citrated, platelet rich rabbit plasma (250 μl ) and allowing the mixture to aggregate fully over 90 seconds before use; alternatively the TXA2 mimetic agent known as U46619 (described by R. L. Jones et alia in "Chemistry, Biochemistry and Pharmacological Activity of Prostanoids" edited by S. M. Roberts and F. Scheinmann, at page 211; Pergamon Press, 1979) may be used as the agonist;
(§2) Using the above test procedures (a)-(c), the following representative results have been obtained with the compounds of formula I (X=Y=H) wherein (i) R is isopropyl, (ii) R is t-butyl; or (iii) R is sec-butyl, respectively: […]

[2] = system: TXA2; assay: TXA2 antagonist properties (test not specified; one or other of the standard tests); conditions: qualitative statement
Source text: As stated earlier, the acids of formula I are antagonists of one or more of the actions of TXA2, for example certain of its actions on blood platelets, the vasculature and/or the lung.

[3] = target: T2, TXA2 (Oryctolagus cuniculus, UniProt Q6WQI8); assay: Test (a): rabbit aortic strip model, TXA2 or U46619 as agonist; assay type: cell-based; conditions: rabbit aortic strip, ±0.05
T2 construct: functional contraction assay (pA2)
T2 sequence (Q6WQI8 1-233): T1 sequence (Q6WQI8 1-233)
Description: as §1, §2

[4] = target: T3, U46619 stimulated platelet aggregation (Homo sapiens, UniProt P21731); assay: Test (b): blood platelet aggregation test, human citrated platelet-rich plasma, U46619 stimulated; assay type: cell-based
T3 construct: aggregating human, citrated, platelet-rich plasma; from tissue; host or cells: human citrated platelet-rich plasma (platelets)
T3 sequence (P21731 1-343): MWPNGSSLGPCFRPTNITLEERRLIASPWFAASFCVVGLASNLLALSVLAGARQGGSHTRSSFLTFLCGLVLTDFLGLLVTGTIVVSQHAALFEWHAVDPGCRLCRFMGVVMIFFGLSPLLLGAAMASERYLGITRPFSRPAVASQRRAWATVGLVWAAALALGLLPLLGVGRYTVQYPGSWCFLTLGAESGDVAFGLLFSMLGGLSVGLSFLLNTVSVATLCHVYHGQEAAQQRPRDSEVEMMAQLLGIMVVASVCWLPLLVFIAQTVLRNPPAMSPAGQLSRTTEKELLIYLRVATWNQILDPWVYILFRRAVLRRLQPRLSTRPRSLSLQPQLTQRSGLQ
Source text: (b) a blood platelet aggregation test based on that described by Born (Nature, 1962, 194, 927-929) and involving:
(i) aggregating human, citrated, platelet-rich plasma by addition of the TXA2 mimetic agent U46619 so that a dose-response curve is generated;
(ii) generating a dose-response curve for U46619 stimulated platelet aggregation in the presence of increasing amounts of test compound (generally in the range 10^-5 M to 10^-10 M); and
(iii) calculating a KB value indicating potency of TXA2 antagonism for the test compound, averaged over several concentrations, from the calculated 50% response value for U46619 aggregation in the presence and absence of test compound; and
as §2

[5] = system: U46619 induced hypertension; assay: Test (d): U46619 induced hypertension in anaesthetised rats; assay type: in vivo, rat (Alderley Park strain)
Description: (d) Male rats (Alderley Park strain) are anaesthetised with sodium pentobarbital and blood pressure is monitored at the carotid artery. The TXA2 mimetic agent U46619 is administered intravenously via the jugular vein at 5 μg/kg to induce a 20-30 mmHg (2640-3940 pascal) increase in systolic blood pressure. The process is repeated twice to ensure adequacy of response. A test compound is then administered either intravenously (via the jugular vein) or orally (via a cannula) directly into the stomach and the animal is challenged with U46619, five minutes after dosing with test compound and then successively every ten minutes until the hypertensive effect of U46619 is no longer blocked.
Similarly, using test procedure (d) referred to above, the following representative results were obtained on inhibition of U46619 induced hypertension with the compounds of formula I referred to above: […]

[6] = system: U46619 induced bronchoconstriction; assay: Test (c): U46619 induced bronchoconstriction, Konzett-Rossler anaesthetised guinea-pig model; assay type: in vivo; conditions: 2 hours after oral dosing at 0.05 mg/kg
Source text: (c) a bronchoconstriction test involving measuring the inhibition by a test compound of the bronchoconstriction induced in the Konzett-Rossler, anaesthetised guinea-pig model (as modified by Collier and James, Brit. J. Pharmacol., 1967, 30, 283-307) by intravenous administration of the TXA2 mimetic agent, U46619 and involving:
(i) obtaining a cumulative dose-response curve to U46619 induced bronchoconstriction by intravenous administration of constant volumes of increasing concentrations of U46619 (0.2-4 μg/kg) in physiological saline solution and expressing bronchoconstriction as the maximum of that theoretically obtainable with no air flow to the test animal;
(ii) generating a cumulative dose-response curve to U46619 induced bronchoconstriction at 30 minute intervals for 3 hours after oral dosing of test compound; and
(iii) calculating a dose-ratio for the test compound (that is the ratio of concentration of U46619 required to cause 50% bronchoconstriction in the presence and absence of test compound) indicating the potency of TXA2 antagonism.
as §2

[7] = 1 hour after oral dose of 0.5 mg/kg

| Compound | pA2 [1] | TXA2 antagonist properties [2] | pA2 (±0.05) [3] | Kb [4] [nM] | inhibition of U46619 induced hypertension [5, 7] [%] | dose ratio (U46619 bronchoconstriction) [6] | inhibition of U46619 induced hypertension ([5]; 1 hour after oral dose of 0.1 mg/kg) [%] |
| --- | --- | --- | --- | --- | --- | --- | --- |
| CC(C)[C@H]1OC[C@@H](C/C=C\CCCC(=O)O)[C@@H](c2ccccc2)O1 (relative stereo) [5(Z)-7-([2,4,5-cis]-2-isopropyl-4-phenyl-1,3-dioxan-5-yl)heptenoic acid, reference compound] | 5.9 | signficantly lower TXA2 antagonist properties | – | – | – | – | – |
| CC(C)[C@H]1OC[C@@H](C/C=C\CCC(=O)O)[C@@H](c2ccccc2O)O1 (relative stereo) [compound (i), 4(Z)-6-([2,4,5-cis]-4-o-hydroxyphenyl-2-isopropyl-1,3-dioxan-5-yl)hexenoicacid] | – | – | 7.71 | 17.9 | > 70 | > 75 | – |
| CC(C)(C)[C@H]1OC[C@@H](C/C=C\CCC(=O)O)[C@@H](c2ccccc2O)O1 (relative stereo) [compound (ii), 4(Z)-6-([2,4,5-cis]-2-t-butyl-4-o-hydroxyphenyl-1,3-dioxan-5-yl)hexenoic acid] | – | – | 7.86 | 13.1 | – | > 110 | > 75 |
| CCC(C)C1OCC(CC=CCCC(=O)O)C(c2ccccc2O)O1 (stereo not drawn) [compound (iii), 4(Z)-6-([2,4,5-cis-]-2-sec-butyl-4-o-hydroxyphenyl-1,3-dioxan-5-yl)hexenoic acid] | – | – | 7.80 | 13.4 | > 70 | > 75 | – |
